Data: ChEMBL document CHEMBL1201862, “PubChem BioAssay data set” (2004)
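Briefly, cells in 96-well plates were exposed to five compound concentrations for 48 h, and endpoints were estimated by linear interpolation. GI50 = concentration required for 50% inhibition of growth.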 The source made the active and inactive calls. No stated cut-off is given here; in the data, active = GI50 up to about 1.1 µM and inactive = higher.

How the values were obtained:
Experiment in all cases: NCI tumour cell line growth inhibition, 48 h
[1] = tested on: ACHN
[2] = tested on: CAKI-1
[3] = tested on: DU-145
[4] = tested on: HCC 2998
[5] = tested on: HCT-116
[6] = tested on: IGROV-1
[7] = tested on: MCF7
[8] = tested on: MDA-N
[9] = tested on: Malme-3M
[10] = tested on: NCI-H460
[11] = tested on: OVCAR-4
[12] = tested on: SF-268
[13] = tested on: SF-295
[14] = tested on: SK-MEL-28
[15] = tested on: SNB-19
[16] = tested on: SNB-75
[17] = tested on: SW-620
[18] = tested on: TK-10
[19] = tested on: U-251
[20] = tested on: UO-31

Measured: GI50

CCOC(=O)C(=CNc1ccc(NC2=NCC(C)S2)cc1)C(=O)OCC (stereo not given)
inactive: [1] 18.7 µM | [2] 45.3 µM | [3] 46.5 µM | [4] 33.4 µM | [5] 35.2 µM | [6] 26.8 µM | [7] 30.3 µM | [8] 25.7 µM | [9] 24.3 µM | [10] 31.6 µM | [11] 9.62 µM | [12] 33.1 µM | [13] 29.6 µM | [14] 20.8 µM | [15] 37.8 µM | [16] 22.1 µM | [17] 31 µM | [18] 46.1 µM | [19] 26.2 µM | [20] 17.8 µM
